Measurements as given in patent US20250326744A1, “PIPERAZINE DERIVATIVE OR SALT THEREOF, AND PHARMACEUTICAL COMPOSITION” (priority 2022, published 2025).
Structures can show the parent of a compound that is named as a salt.

Tests used:
mexB (PA) strain = assay: Combinational effect with antibacterial agent against Pseudomonas aeruginosa (Test Examples 2 and 4): mexB (PA) strain with LVFX, TC or AZT at 1/4 MIC, EC99; assay type: cell-based; conditions: Table 52, Test Example 2, 16 to 20 hours culture, OD595; for EC99, mexB (PA), AZT: combined with AZT at 1/4 MIC; for EC99, mexB (PA), LVFX: combined with LVFX at 1/4 MIC; for EC99, mexB (PA), TC: combined with TC at 1/4 MIC
Procedure: (§1) The combinational effect of the test compound with the antibacterial agent against Pseudomonas aeruginosa was evaluated.
For the evaluation of the inhibitory ability against MexAB-OprM, a mutant strain of Pseudomonas aeruginosa in which MexAB-OprM was expressed as a main drug efflux pump (hereinafter, referred to as a “mexB (PA) strain”) was used. LVFX, TC, or AZT was used as the antibacterial agent used in combination.
The mexB (PA) strain is a strain produced by deleting the genes of MexCD-OprJ, MexEF-OprN, and MexXY in the drug efflux pump of Pseudomonas aeruginosa described in FEMS Microbiology Letters, 2001, Vol. 202, pp. 139 to 143. In the mexB (PA) strain, an expression level of MexB as a drug efflux pump is accelerated.
TC is a tetracycline-based antibacterial agent and is a drug that is discharged outside the bacteria by MexB. AZT is a monobactam-based antibacterial agent and is a drug that is discharged outside the bacteria by MexB.
(§2) AMK and GM are aminoglycoside-based antibacterial agents, and are drugs that are not discharged outside the bacteria by MexB but are discharged outside the bacteria by MexY For the culture of each Pseudomonas aeruginosa strain, a 96-well plate (amount of culture medium per well: 100 μL) was used, and cation-adjusted Mueller Hinton broth (CAMHB) was used. The inoculation amount of the bacteria was set to 10^4 to 5 CFU/well.
(§3) The mexB (PA) strain and the S-3769 strain were cultured for 16 to 20 hours in a culture medium to which each antibacterial agent and test compounds at various concentrations (0 to 800 μM) were added, and the proliferation of the bacterial strains was evaluated by optical turbidity at 595 nm (OD595). The concentration of the antibacterial agent in the culture medium was set to ¼ MIC.
(§4) The proliferation of bacteria in a case where the test compound and the antibacterial agent were not added was measured, and compared with the proliferation of bacteria in a case where the test compound in a case where the antibacterial agent was added at the concentration of ¼ MIC was contained, and the lowest concentration of the test compound at which the proliferation was inhibited by 99% or more was defined as the drug efflux pump inhibitory ability of the test compound as 99% inhibitory effect concentration (EC99).
(§5) The effect of suppressing the proliferation of each test compound in combination with an antibacterial agent at ¼ MIC for mexB (PA) or the S-3769 strain was evaluated as follows according to the value of EC99. • S: EC99≤12.5 μM • A: 12.5 μM<EC99≤25 μM • B: 25 μM<EC99≤100 μM • C: 100 μM<EC99
(§6) The combinational effect of the test compound with the antibacterial agent against Pseudomonas aeruginosa was evaluated in the same manner as in Test Example 2.

S-3769 strain = assay: Combinational effect with antibacterial agent against Pseudomonas aeruginosa (Test Examples 2 and 4): S-3769 strain with AMK or GM at 1/4 MIC, EC99; assay type: cell-based; conditions: Table 52, Test Example 2, 16 to 20 hours culture, OD595; for EC99, S-3769 strain, AMK: combined with AMK at 1/4 MIC; for EC99, S-3769 strain, GM: combined with GM at 1/4 MIC
Procedure: as §1
The […] was used for evaluating the inhibitory ability against MexXY-OprM. AMK or GM was used as the antibacterial agent used in combination.
The S-3769 strain is a clinically isolated strain collected from a domestic medical institution, and is a strain in which the expression level of MexY is accelerated.
as §2, §3, §4, §5, §6

| SMILES | EC99, mexB (PA), AZT (mexB (PA) strain) | EC99, mexB (PA), LVFX (mexB (PA) strain) | EC99, mexB (PA), TC (mexB (PA) strain) | EC99, S-3769 strain, AMK (S-3769 strain) | EC99, S-3769 strain, GM (S-3769 strain) |
| --- | --- | --- | --- | --- | --- |
| N[C@@H](C(=O)N1CCN(Cc2cccc3c2OC(F)(F)O3)CC1)C1CCN(CCc2cc(Cl)ccc2-c2ccccc2)CC1 [Example 24, Hydrobromide of (R)-2-amino-2-(1-(2-(4-chloro-[1,1′-biphenyl]-2-yl)ethyl)piperidin-4-yl)-1-(4-((2,2-difluorobenzo[d][1,3]dioxol-4-yl)methyl)piperazin-1-yl)ethan-1-one] | B (25 μM<EC99≤100 μM) | B (25 μM<EC99≤100 μM) | A (12.5 μM<EC99≤25 μM) | B (25 μM<EC99≤100 μM) | B (25 μM<EC99≤100 μM) |
| CCSc1cccc(F)c1CN1CCN(C(=O)[C@H](N)C2CCN(CCc3cc(Cl)ccc3-c3ccccc3)CC2)CC1 [Example 27, (R)-2-amino-2-(1-(2-(4-chloro-[1,1′-biphenyl]-2-yl)ethyl)piperidin-4-yl)-1-(4-(2-(ethylthio)-6-fluorobenzyl)piperazin-1-yl)ethan-1-one] | A (12.5 μM<EC99≤25 μM) | A (12.5 μM<EC99≤25 μM) | S (EC99≤12.5 μM) | S (EC99≤12.5 μM) | S (EC99≤12.5 μM) |
| CCSc1cc(F)ccc1CN1CCN(C(=O)[C@H](N)C2CCN(CCc3cc(Cl)ccc3-c3ccccc3)CC2)CC1 [Example 30, (R)-2-amino-2-(1-(2-(4-chloro-[1,1′-biphenyl]-2-yl)ethyl)piperidin-4-yl)-1-(4-(2-(ethylthio)-4-fluorobenzyl)piperazin-1-yl)ethan-1-one] | S (EC99≤12.5 μM) | S (EC99≤12.5 μM) | S (EC99≤12.5 μM) | S (EC99≤12.5 μM) | S (EC99≤12.5 μM) |
| CCOc1ccc(F)c(F)c1CN1CCN(C(=O)[C@H](N)C2CCN(CCc3cc(Cl)ccc3-c3ccccc3)CC2)CC1 [Example 35, Hydrobromide of (R)-2-amino-2-(1-(2-(4-chloro-[1,1′-biphenyl]-2-yl)ethyl)piperidin-4-yl)-1-(4-(6-ethoxy-2,3-difluorobenzyl)piperazin-1-yl)ethan-1-one] | B (25 μM<EC99≤100 μM) | C (100 μM<EC99) | B (25 μM<EC99≤100 μM) | S (EC99≤12.5 μM) | S (EC99≤12.5 μM) |
| N[C@@H](C(=O)N1CCN(Cc2cccc3c2OCO3)CC1)C1CCN(CCc2cc(Cl)ccc2-c2ccccc2)CC1 [Example 36, Hydrobromide of (R)-2-amino-1-(4-(benzo[d][1,3]dioxol-4-ylmethyl)piperazin-1-yl)-2-(1-(2-(4-chloro-[1,1′-biphenyl]-2-yl)ethyl)piperidin-4-yl) ethan-1-one] | B (25 μM<EC99≤100 μM) | C (100 μM<EC99) | B (25 μM<EC99≤100 μM) | B (25 μM<EC99≤100 μM) | B (25 μM<EC99≤100 μM) |
| N[C@@H](C(=O)N1CCN(Cc2cccc3c2OCCO3)CC1)C1CCN(CCc2cc(Cl)ccc2-c2ccccc2)CC1 [Example 37, Hydrobromide of (R)-2-amino-2-(1-(2-(4-chloro-[1,1′-biphenyl]-2-yl)ethyl)piperidin-4-yl)-1-(4-((2,3-dihydrobenzo[b] [1,4]dioxin-5-yl)methyl)piperazin-1-yl) ethan-1-one] | B (25 μM<EC99≤100 μM) | C (100 μM<EC99) | B (25 μM<EC99≤100 μM) | B (25 μM<EC99≤100 μM) | B (25 μM<EC99≤100 μM) |
